This is an account of results in ChEMBL document CHEMBL5154811, “Discovery of SPH5030, a Selective, Potent, and Irreversible Tyrosine Kinase Inhibitor for HER2-Amplified and HER2-Mutant Cancer Treatment” (J Med Chem, 2022).

A word on the IC50: it is the concentration at which inhibition is half-maximal. The term half-life denotes how long it takes for the measured level to halve. By Cmax is commonly meant the peak of the concentration-time curve. For orientation: AUC(0-t) means exposure summed from dosing to a finite time, without extrapolation to infinity. For orientation: bioavailability means the share of a dose that reaches the circulation, judged against a reference dose that is usually intravenous. A lower bioavailability goes with poor availability. In general, Tmax refers to the time at which the peak concentration occurs. The clearance is the rate of elimination divided by the concentration.

The target in data set [1] is Receptor tyrosine-protein kinase erbB-2 (Homo sapiens, UniProt P04626). In words: Inhibition of wild type human GST-tagged HER2 (676 to end residues) expressed in baculovirus infected Sf9 cells incubated for 30 mins in presence of ATP by HTRF analysis. (Time-resolved FRET reads energy transfer from a long-lived donor to a nearby acceptor.)
Chain of Receptor tyrosine-protein kinase erbB-2 (P04626 whole entry): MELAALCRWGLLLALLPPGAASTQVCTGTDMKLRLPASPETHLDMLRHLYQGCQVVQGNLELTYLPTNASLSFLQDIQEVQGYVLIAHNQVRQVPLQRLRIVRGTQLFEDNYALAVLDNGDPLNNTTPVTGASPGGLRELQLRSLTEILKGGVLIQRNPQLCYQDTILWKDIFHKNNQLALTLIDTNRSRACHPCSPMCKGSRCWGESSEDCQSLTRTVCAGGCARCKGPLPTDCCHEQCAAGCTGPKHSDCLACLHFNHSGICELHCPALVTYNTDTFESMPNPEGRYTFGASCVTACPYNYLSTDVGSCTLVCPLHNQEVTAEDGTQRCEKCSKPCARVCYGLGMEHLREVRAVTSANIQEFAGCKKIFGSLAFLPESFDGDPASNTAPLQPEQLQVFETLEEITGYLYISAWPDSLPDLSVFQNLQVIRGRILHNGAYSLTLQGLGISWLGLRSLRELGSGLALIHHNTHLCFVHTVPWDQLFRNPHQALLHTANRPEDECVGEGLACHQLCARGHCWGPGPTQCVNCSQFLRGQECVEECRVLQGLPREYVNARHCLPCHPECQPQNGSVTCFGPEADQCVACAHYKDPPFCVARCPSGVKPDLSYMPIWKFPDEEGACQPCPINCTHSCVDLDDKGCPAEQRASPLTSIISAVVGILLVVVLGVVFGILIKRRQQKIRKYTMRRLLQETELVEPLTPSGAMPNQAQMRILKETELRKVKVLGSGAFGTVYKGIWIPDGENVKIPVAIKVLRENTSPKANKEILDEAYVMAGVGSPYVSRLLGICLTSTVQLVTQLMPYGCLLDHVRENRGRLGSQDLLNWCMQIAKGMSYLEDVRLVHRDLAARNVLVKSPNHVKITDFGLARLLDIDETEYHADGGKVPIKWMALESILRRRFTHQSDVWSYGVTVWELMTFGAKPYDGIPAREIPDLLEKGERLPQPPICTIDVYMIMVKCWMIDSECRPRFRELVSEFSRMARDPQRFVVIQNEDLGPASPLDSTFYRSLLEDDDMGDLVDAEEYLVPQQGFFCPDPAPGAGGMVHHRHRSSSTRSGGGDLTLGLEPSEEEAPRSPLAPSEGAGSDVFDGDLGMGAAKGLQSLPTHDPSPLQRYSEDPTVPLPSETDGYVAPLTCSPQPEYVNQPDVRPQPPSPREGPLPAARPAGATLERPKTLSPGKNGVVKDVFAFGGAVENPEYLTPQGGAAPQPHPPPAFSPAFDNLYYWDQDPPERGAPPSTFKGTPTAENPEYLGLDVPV
The next data set concerns BT-474. As to the kind of experiment: Antiproliferative activity against human BT-474 cells assessed as inhibition of cell growth incubated for 72 hrs by Celltiter-Glo assay. It is filed as functional, cell-based. The following applies: BT-474, 72 h.
Data set [2] in a line: Metabolic stability in human liver microsomes assessed as intrinsic clearance at 1 uM preincubated for 5 mins followed by NADPH addition by LC-MS/MS analysis. It is filed as ADME, Microsome. The following applies: read-out: CLH. A general note: Liver microsomes are a subcellular fraction often used to study metabolism.
The nature of data set [3]: Metabolic stability in human liver microsomes assessed as half life at 1 uM preincubated for 5 mins followed by NADPH addition by LC-MS/MS analysis. It is filed as ADME, Microsome.
For data set [4], the target named is Epidermal growth factor receptor (Homo sapiens, UniProt P00533). In words: Inhibition of wild type human N-terminal GST tagged EGFR (669 to 1210 residues) expressed in Sf21 insect cells incubated for 30 mins in presence of ATP by HTRF analysis.
Chain of Epidermal growth factor receptor (P00533 whole entry, the tested form may be a part): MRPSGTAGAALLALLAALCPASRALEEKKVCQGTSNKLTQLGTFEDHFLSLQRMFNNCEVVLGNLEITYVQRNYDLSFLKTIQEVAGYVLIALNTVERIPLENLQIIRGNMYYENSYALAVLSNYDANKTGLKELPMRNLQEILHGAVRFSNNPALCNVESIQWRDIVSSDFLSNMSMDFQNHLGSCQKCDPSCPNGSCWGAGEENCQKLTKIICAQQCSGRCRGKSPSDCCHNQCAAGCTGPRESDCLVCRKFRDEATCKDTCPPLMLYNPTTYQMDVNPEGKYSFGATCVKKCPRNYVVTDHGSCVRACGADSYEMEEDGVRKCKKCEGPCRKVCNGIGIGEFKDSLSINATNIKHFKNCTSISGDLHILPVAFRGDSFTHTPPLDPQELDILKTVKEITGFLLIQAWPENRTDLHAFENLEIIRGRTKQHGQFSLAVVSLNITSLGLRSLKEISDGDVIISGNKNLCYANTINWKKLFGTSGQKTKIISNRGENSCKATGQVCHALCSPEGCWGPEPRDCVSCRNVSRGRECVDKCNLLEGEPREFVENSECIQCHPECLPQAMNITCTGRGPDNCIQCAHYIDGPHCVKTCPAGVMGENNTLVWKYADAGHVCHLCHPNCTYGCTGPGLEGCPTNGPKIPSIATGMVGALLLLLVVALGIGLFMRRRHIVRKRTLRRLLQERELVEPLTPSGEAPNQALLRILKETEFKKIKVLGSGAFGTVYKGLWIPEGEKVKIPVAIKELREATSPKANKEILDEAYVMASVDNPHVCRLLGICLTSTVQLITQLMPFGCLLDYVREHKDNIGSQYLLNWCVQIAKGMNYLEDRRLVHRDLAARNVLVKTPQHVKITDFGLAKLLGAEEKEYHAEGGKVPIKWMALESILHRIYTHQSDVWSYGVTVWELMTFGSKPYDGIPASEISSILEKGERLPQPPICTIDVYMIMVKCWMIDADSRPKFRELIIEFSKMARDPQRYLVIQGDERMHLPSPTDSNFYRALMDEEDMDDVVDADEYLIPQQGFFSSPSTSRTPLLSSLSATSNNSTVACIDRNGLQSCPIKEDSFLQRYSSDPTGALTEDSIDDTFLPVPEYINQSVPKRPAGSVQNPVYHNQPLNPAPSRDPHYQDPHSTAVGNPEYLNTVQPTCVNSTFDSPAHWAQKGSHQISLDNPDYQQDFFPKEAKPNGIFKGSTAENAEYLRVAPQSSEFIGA
In a further data set the test system is NCI-N87. As to the kind of experiment: Antiproliferative activity against human NCI-N87 cells assessed as inhibition of cell growth incubated for 72 hrs by Celltiter-Glo assay. The following applies: NCI-N87, 72 h. It is filed as functional, cell-based. A general note: Cellular ATP, detected with luciferase, serves as a proxy for viable cell number.
Data set [5] can be described thus: Volume of distribution at steady state in ICR mouse at 3 mg/kg, iv measured upto 1440 mins by LC/MS/MS analysis. It is filed as ADME, organism-based. To be noted: in vivo, read-out: Vdss.
Data set [6] in a line: Half life in Sprague-Dawley rat at 3 mg/kg, iv measured upto 1440 mins by LC/MS/MS analysis. It is filed as ADME, organism-based. To be noted: in vivo.
Data set [7] can be described thus: Cmax in Sprague-Dawley rat at 10 mg/kg, po measured upto 1440 mins by LC/MS/MS analysis. The arrangement: time < 1440 min, dose 10 mg/kg, route po. It is filed as ADME, organism-based. To be noted: in vivo.
Data set [8] can be described thus: AUC (0 to t) in Sprague-Dawley rat at 10 mg/kg, po measured upto 1440 mins by LC/MS/MS analysis. It is filed as ADME, organism-based. Further details: dose 10 mg/kg, time < 1440 min, route po. The following applies: in vivo.
Data set [9] in a line: Half life in ICR mouse at 3 mg/kg, iv measured upto 1440 mins by LC/MS/MS analysis. It is filed as ADME, organism-based. The following applies: in vivo.
Data set [10] can be described thus: Oral bioavailability in ICR mouse at 10 mg/kg measured upto 1440 mins by LC/MS/MS analysis. It is filed as ADME, organism-based. To be noted: in vivo.
The nature of data set [11]: Half life in Sprague-Dawley rat at 10 mg/kg, po measured upto 1440 mins by LC/MS/MS analysis. It is filed as ADME, organism-based. The following applies: in vivo.
A short description of data set [12]: Cmax in ICR mouse at 10 mg/kg, po measured upto 1440 mins by LC/MS/MS analysis. It is filed as ADME, organism-based. Further details: dose 10 mg/kg, time < 1440 min, route po. To be noted: in vivo.
Data set [13] is described as follows: Volume of distribution at steady state in Sprague-Dawley rat at 3 mg/kg, iv measured upto 1440 mins by LC/MS/MS analysis. It is filed as ADME, organism-based. To be noted: in vivo, read-out: Vdss.
Data set [14] can be described thus: Tmax in ICR mouse at 10 mg/kg, po measured upto 1440 mins by LC/MS/MS analysis. It is filed as ADME, organism-based. To be noted: in vivo.
Data set [15] can be described thus: Half life in ICR mouse at 10 mg/kg, po measured upto 1440 mins by LC/MS/MS analysis. It is filed as ADME, organism-based. To be noted: in vivo.
A short description of data set [16]: AUC (0 to t) in ICR mouse at 10 mg/kg, po measured upto 1440 mins by LC/MS/MS analysis. The arrangement: time < 1440 min, dose 10 mg/kg, route po. It is filed as ADME, organism-based. The following applies: in vivo.
A short description of data set [17]: Tmax in Sprague-Dawley rat at 10 mg/kg, po measured upto 1440 mins by LC/MS/MS analysis. It is filed as ADME, organism-based. To be noted: in vivo.
Data set [18] can be described thus: Oral bioavailability in Sprague-Dawley rat at 10 mg/kg measured upto 1440 mins by LC/MS/MS analysis. It is filed as ADME, organism-based. The following applies: in vivo.
The nature of data set [19]: Clearance in Sprague-Dawley rat at 3 mg/kg, iv measured upto 1440 mins by LC/MS/MS analysis. To be noted: in vivo. It is filed as ADME, organism-based.
Data set [20] in a line: Clearance in ICR mouse at 3 mg/kg, iv measured upto 1440 mins by LC/MS/MS analysis. It is filed as ADME, organism-based. To be noted: in vivo.

Consider `CCOc1cc2ncnc(Nc3ccc(Oc4cc5nncn5cn4)c(C)c3)c2cc1NC(=O)/C(F)=C\[C@H]1CCCN1C`, for which the figures for the IC50 (in data set [1]; in the data set with BT-474; in [4]) were 7.3 nM, 3.36 nM and 86.3 nM, respectively. The microsomal CLint at 1 µM in data set [2] stood at 24.2 µL/min/mg. In [3], the half-life at 1 µM amounted to 0.954 h.
As to `C=CC(=O)Nc1cc2c(Nc3ccc(Oc4cc5nncn5cn4)c(C)c3)ncnc2cc1OCC`, the IC50 in data set [1] is 1.93 nM; with BT-474, 4.69 nM; in data set [4] it was 1.47 nM; in the data set on NCI-N87, 51.9 nM.
The corresponding values for `Cc1cc(Nc2ncnc3ccc(NC(=O)/C=C/CN(C)C)cc23)ccc1Oc1cc2nncn2cn1` are 2.85 nM, 8.05 nM, 2.13 nM and 11.7 nM.
Consider `CCOc1cc2ncnc(Nc3ccc(Oc4cc5nncn5cn4)c(C)c3)c2cc1NC(=O)/C(F)=C/[C@@H]1CCCN1C`, for which the IC50 in data set [1] came to 3.38 nM; in the data set with BT-474, 2.65 nM; in data set [4] it was 32.1 nM; in the data set with NCI-N87 it was 1.55 nM. Besides, the microsomal CLint at 1 µM in data set [2] turned out to be 16.9 µL/min/mg. In addition, in data set [3], the half-life at 1 µM was determined as 1.37 h.
On to `Cc1cc(Nc2ncnc3cc(O)c(NC(=O)/C=C/[C@H]4CCCN4C)cc23)ccc1Oc1cc2nccn2cn1`, for which the IC50 in data set [1] amounted to 1.06 nM; with BT-474 it was 5.59 nM; in data set [4] it was 1.11 nM; in the data set on NCI-N87 it was 41.7 nM.
Turning to `Cc1cc(Nc2ncnc3ccc(NC(=O)/C=C/[C@H]4CCCN4C)cc23)ccc1Oc1cc2nncn2cn1`, the IC50 in [1] stood at 1.4 nM; with BT-474 it was 3.06 nM; in [4], 1.19 nM; with NCI-N87, 2.17 nM.
`Cc1cc(Nc2c(C#N)cnc3ccc(NC(=O)/C=C/CN(C)C)cc23)ccc1Oc1cc2nncn2cn1`: the IC50 in [1] stood at 62.3 nM; in the data set on BT-474, 14.9 nM; in data set [4] it was 20.7 nM; in the data set on NCI-N87, 19.2 nM.
`Cc1cc(Nc2ncnc3cc(O)c(NC(=O)/C=C/[C@H]4CCCN4C)cc23)ccc1Oc1ccn2cnnc2c1`: the IC50 in data set [1] is 6.31 nM; in the data set with BT-474, 26.8 nM; in data set [4], 22.7 nM; in the data set on NCI-N87, 32.9 nM.
As to `CCOc1cc2ncnc(Nc3ccc(Oc4cc5nncn5cn4)c(C)c3)c2cc1NC(=O)/C(F)=C\[C@@H]1CCCN1C`, the Vd is 4.49 L/kg in [5] and 23.6 L/kg in data set [13]. In addition, the half-life in [6] was 6.62 h; in data set [9] it was 1.16 h; in data set [11] it was 4.14 h; in [15], 0.87 h. Besides, the results for the Cmax in [7] and in [12] were 30 ng/mL and 290 ng/mL, respectively. In addition, the values for the AUC(0-t) at 24 h in [8] and in data set [16] were 170 ng·h/mL and 630 ng·h/mL, respectively. For the same molecule, the IC50 was determined as 3.68 nM in data set [1], 1.75 nM in the data set on BT-474, 25.9 nM in data set [4] and 0.56 nM in the data set on NCI-N87. In addition, the values for the bioavailability in [10] and in data set [18] were 34.4% and 13.7%, respectively. For the same molecule, the Tmax in data set [14] amounted to 0.42 h; in data set [17], 2.67 h. For the same molecule, the clearance in data set [19] was 80.8 mL/min/kg; in data set [20], 90 mL/min/kg.
Take `C=C(F)C(=O)Nc1cc2c(Nc3ccc(Oc4cc5nncn5cn4)c(C)c3)ncnc2cc1OCC`: the IC50 in data set [1] was found to be 4.05 nM; with BT-474 it was 3.88 nM; in data set [4], 9.6 nM; in the data set with NCI-N87, 6.56 nM. For the same molecule, the microsomal CLint at 1 µM in data set [2] worked out at 40 µL/min/mg. The half-life at 1 µM in data set [3] turned out to be 0.578 h.
Take `CCOc1cc2ncnc(Nc3ccc(Oc4cc5nncn5cn4)c(C)c3)c2cc1NC(=O)/C=C/[C@H]1CCCN1C`: the values for the Vd in [5] and in [13] were 2.79 L/kg and 10.6 L/kg, respectively. The half-life was 2.09 h in data set [6], 4.38 h in data set [9], 4.32 h in data set [11] and 3.07 h in data set [15]. The values for the Cmax in data set [7] and in data set [12] were 280 ng/mL and 400 ng/mL, respectively. For the same molecule, the results for the AUC(0-t) at 24 h in data set [8] and in [16] were 2170 ng·h/mL and 1700 ng·h/mL, respectively. Also, the concentration for half-maximal inhibition (IC50) is 1.67 nM in data set [1], 2.13 nM in the data set with BT-474, 1.36 nM in data set [4] and 1.12 nM in the data set with NCI-N87. In data set [2], the microsomal CLint at 1 µM is 1.81 µL/min/mg. For the same molecule, the bioavailability in [10] came to 22.6%; in [18], 47.5%. Moreover, in data set [3], the half-life at 1 µM turned out to be 12.9 h. For the same molecule, the time to peak (Tmax) was found to be 1.67 h in [14] and 4 h in [17]. In addition, the results for the clearance in data set [19] and in data set [20] were 55.5 mL/min/kg and 22 mL/min/kg, respectively.
In the case of `Cc1cc(Nc2ncnc3cc(O)c(NC(=O)/C=C/[C@H]4CCCN4C)cc23)ccc1Oc1cnc2ccnn2c1`, the IC50 in [1] stood at 2.41 nM; in the data set on BT-474, 3.11 nM; in data set [4], 1.03 nM; in the data set on NCI-N87 it was 1.9 nM.
For `Cc1cc(Nc2ncnc3cc(O)c(NC(=O)/C=C/[C@H]4CCCN4C)cc23)ccc1Oc1ccn2ccnc2c1`, the IC50 in [1] was 1.7 nM; with BT-474, 4.63 nM; in data set [4], 2.31 nM; with NCI-N87 it was 4.55 nM.
For the molecule `Cc1cc(Nc2ncnc3cc(O)c(NC(=O)/C=C/[C@H]4CCCN4C)cc23)ccc1Oc1ccn2ncnc2c1`, the IC50 was found to be 1.43 nM in data set [1], 2.4 nM with BT-474, 2.8 nM in data set [4] and 2.65 nM with NCI-N87.
Turning to `COCC(=O)NC/C=C/c1ccc2ncc(C#N)c(Nc3ccc(Oc4cc5nncn5cn4)c(C)c3)c2c1`, the IC50 was 369 nM in the data set on BT-474, 1830 nM in [4] and 441 nM in the data set on NCI-N87.
With `Cc1cc(Nc2ncnc3cc(O)c(NC(=O)/C=C/[C@H]4CCCN4C)cc23)ccc1Oc1ccc2nccn2c1`, the IC50 in data set [1] was 6.42 nM; in the data set on BT-474, 5.22 nM; in [4], 2.32 nM; with NCI-N87 it was 4.08 nM.
For the molecule `Cc1cc(Nc2ncnc3cc(O)c(NC(=O)/C=C/[C@H]4CCCN4C)cc23)ccc1Oc1cnn2cnnc2c1`, the IC50 came out at 16 nM in data set [1], 20.8 nM with BT-474, 11.8 nM in data set [4] and 28.3 nM with NCI-N87.
In the case of `COCC(=O)NC/C=C/c1ccc2ncnc(Nc3ccc(Oc4cc5nncn5cn4)c(C)c3)c2c1`, the IC50 is 2.55 nM in data set [1], 50 nM with BT-474, 110 nM in data set [4] and 80.7 nM with NCI-N87.
For `Cc1cc(Nc2c(C#N)cnc3ccc(NC(=O)/C=C/[C@H]4CCCN4C)cc23)ccc1Oc1cc2nncn2cn1`, the IC50 in data set [1] is 10.8 nM; in the data set on BT-474, 7.44 nM; in data set [4], 3.13 nM; in the data set with NCI-N87, 6.7 nM.
